This note sets out measurements from paper PMC6170555, “Synthesis of novel (E)-1-(2-(2-(4(dimethylamino) benzylidene) hydrazinyl)-4-methylthiazol-5-yl)ethanone derivatives as ecto-5′-nucleotidase inhibitors” (Royal Society Open Science, 2018).

One assay deals with T1, h-e5′NT (Homo sapiens, UniProt P21589).
T1 construct: made in house; host or cells: COS-7 cells, transiently transfected; sonicated extract / membrane fraction
T1 sequence (P21589 27-574): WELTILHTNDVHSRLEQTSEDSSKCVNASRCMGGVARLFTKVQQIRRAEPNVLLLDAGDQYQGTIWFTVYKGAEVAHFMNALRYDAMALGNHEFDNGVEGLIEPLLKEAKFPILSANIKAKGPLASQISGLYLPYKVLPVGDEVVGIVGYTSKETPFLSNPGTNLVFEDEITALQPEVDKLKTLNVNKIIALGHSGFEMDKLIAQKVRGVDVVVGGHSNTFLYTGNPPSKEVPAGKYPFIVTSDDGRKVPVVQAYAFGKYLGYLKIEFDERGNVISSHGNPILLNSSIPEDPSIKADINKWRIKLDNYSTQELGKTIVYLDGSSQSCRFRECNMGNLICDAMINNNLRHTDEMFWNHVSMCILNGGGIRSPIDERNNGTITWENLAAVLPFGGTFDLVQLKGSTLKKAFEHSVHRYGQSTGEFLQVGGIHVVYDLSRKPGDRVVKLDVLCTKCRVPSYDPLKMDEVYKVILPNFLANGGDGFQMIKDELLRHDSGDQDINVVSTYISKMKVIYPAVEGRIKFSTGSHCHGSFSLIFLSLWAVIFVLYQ
Kind of assay: Ecto-5′-nucleotidase inhibition assay (capillary electrophoresis), human enzyme. It is filed as biochemical. The conditions noted are these: for IC50 / inhibition at 100 µM: mean ± s.e.m., n = 3; for IC50: substrate AMP 500 µM; for inhibition at 100 µM: compound at 0.1 mM, read-out: h-e5′NT percentage inhibition ± s.e.m.; for inhibitory potential toward h-e5′NT after initial screening: initial screening at 0.1 mM. How it is done: (§1) The plasmids expressing e5′NT, either rat or human, were used to transfect the COS-7 cells through lipofectamine. The confluent cells were allowed to incubate in DMEM/F-12 having plasmid DNA (6 µg) and transfecting reagent (24 µl) for 5 h at ambient temperature (37°C). To discontinue transfection, a specified volume of DMEM/F-12 was added, containing FBS (20%). These cells were then harvested after 2–3 days.
(§2) The transfected cells were separated from harvesting buffer (45 mM Tris buffer, 95 mM NaCl, and 0.1 mM PMSF, pH 7.5) through scraping, followed by washing with Tris buffer and then allowed to centrifuge by spinning at 300 r.p.m. at 4°C for 5 min [30]. Finally, the cells remained suspended in harvesting buffer solution containing aprotinin (10 µg ml^−1). As a result of sonication, the produced cellular debris was removed by cold centrifugation operated at 300 r.p.m. for 10 min. Glycerol (7.5%) was mixed with the resultant supernatant. The Bradford microplate assay was employed for estimation of protein concentration where albumin was used as a standard.
(§3) The e5′NT inhibition assay was performed with respect to our previously described procedure on P/ACE MDQ capillary electrophoresis system (Beckman Instruments, Fullerton, CA, USA) provided with UV detection system. The samples were prepared in the assay buffer (1 mM CaCl2, 10 mM Tris HCl and 2 mM MgCl2, pH 7.4) and analysed at 0.1 mM concentration. The total assay volume (100 µl) comprises sample (10 µl), 10 µl of h-e5′NT (6.94 µg ml^−1) protein extract or r-e5′NT (7.17 µg ml^−1) and 70 µl of assay buffer. The above mixture was allowed to incubate at 37°C for 10 min. Subsequently, biochemical reaction was started with the addition of substrate (10 µl) and AMP (500 µM). The mixture was incubated again for 30 min at 37°C. The enzyme-substrate reaction was stopped by thermal denaturation for the duration of 20 min by placing the mixture in a water bath at 99°C. Then, 50 µl of obtained mixture was filled into CE mini vials and injected with 0.5 psi into the capillary in 5 s, whereas 15 kV was set to split-up substrate and product peaks. […] Therefore, successive dilution of each active compound was made and different inhibitor concentrations were assayed to obtain the dose–response curve against both enzymes. All experiments were conducted thrice. The nonlinear regression analysis program (PRISM 5.0) was employed to calculate IC50 value.

In the next assay the target is T2, r-e5′NT (Rattus norvegicus, UniProt P21588).
T2 construct: made in house; host or cells: COS-7 cells, transiently transfected; sonicated extract / membrane fraction
T2 sequence (P21588 29-576): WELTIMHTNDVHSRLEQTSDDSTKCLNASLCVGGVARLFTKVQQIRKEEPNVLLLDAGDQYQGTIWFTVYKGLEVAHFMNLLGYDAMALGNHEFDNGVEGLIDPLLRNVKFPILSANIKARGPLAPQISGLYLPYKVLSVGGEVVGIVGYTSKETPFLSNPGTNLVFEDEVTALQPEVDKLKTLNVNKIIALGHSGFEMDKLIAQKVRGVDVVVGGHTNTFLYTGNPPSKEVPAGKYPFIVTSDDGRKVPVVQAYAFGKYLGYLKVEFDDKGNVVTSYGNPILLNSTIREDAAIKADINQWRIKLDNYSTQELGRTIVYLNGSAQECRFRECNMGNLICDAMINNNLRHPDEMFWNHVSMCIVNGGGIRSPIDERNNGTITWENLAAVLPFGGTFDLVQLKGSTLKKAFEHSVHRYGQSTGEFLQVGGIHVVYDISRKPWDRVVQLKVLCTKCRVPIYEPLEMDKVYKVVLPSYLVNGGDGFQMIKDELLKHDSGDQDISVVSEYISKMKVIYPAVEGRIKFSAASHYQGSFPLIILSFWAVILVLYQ
Nature of the assay: Ecto-5′-nucleotidase inhibition assay (capillary electrophoresis), rat enzyme. The conditions noted are these: for IC50 / inhibition at 100 µM: mean ± s.e.m., n = 3; for IC50: substrate AMP 500 µM; for inhibition at 100 µM: compound at 0.1 mM, read-out: r-e5′NT percentage inhibition ± s.e.m.; for inhibitory potential toward r-e5′NT after initial screening: initial screening at 0.1 mM. It is filed as biochemical. The procedure: as §1, §2, §3

`CC(=O)c1sc(N/N=C/c2cccnc2)nc1C` [3a, (E)-1-(4-methyl-2-(2-(pyridin-3-ylmethylene)hydrazinyl)thiazol-5-yl)ethanone]: the values for the IC50 on h-e5′NT and on r-e5′NT were 0.32 ± 0.03 µM and 7.81 ± 0.89 µM, respectively. In addition, the “potency against h-e5′NT relative to r-e5′NT” value at h-e5′NT (ratio of IC50 r-e5′NT / h-e5′NT) came to 24 fold. The “inhibition against h-e5′NT compared with positive control sulfamic acid” value on h-e5′NT (ratio of IC50 sulfamic acid / compound) was found to be 132 fold.

`CC(=O)c1sc(N/N=C/c2ccc(N(C)C)cc2)nc1C` [3b, (E)-1-(2-(2-(4-(dimethylamino)benzylidene)hydrazinyl)-4-methylthiazol-5-yl)ethanone]: the IC50 against h-e5′NT stood at 0.56 ± 0.07 µM; at r-e5′NT, 10.1 ± 0.58 µM.

Regarding `CC(=O)c1sc(N/N=C/c2ccco2)nc1C` [3c, (E)-1-(2-(2-(furan-2-ylmethylene)hydrazinyl)-4-methylthiazol-5-yl)ethanone], at h-e5′NT, the inhibition at 100 µM amounted to 38.1 ± 5.47% and the “inhibitory potential toward h-e5′NT after initial screening” value was “no inhibitory potential”. Further, at r-e5′NT, the inhibition at 100 µM is 15.3 ± 2.78% and the “inhibitory potential toward r-e5′NT after initial screening” value is recorded as “no inhibitory potential”.

`CC(=O)c1sc(N/N=C/c2ccc(C)o2)nc1C` [3d, (E)-1-(4-methyl-2-(2-((5-methylfuran-2-yl)methylene)hydrazinyl)thiazol-5-yl)ethanone]: on h-e5′NT, the inhibition at 100 µM amounted to 43.6 ± 1.18% and the “inhibitory potential toward h-e5′NT after initial screening” value is “no inhibitory potential”. For the same compound, on r-e5′NT, the inhibition at 100 µM stood at 12.3 ± 3.91% and the “inhibitory potential toward r-e5′NT after initial screening” value is “no inhibitory potential”.

`CC(=O)c1sc(N/N=C/c2ccc[nH]2)nc1C` [3e, (E)-1-(2-(2-((1H-pyrrol-2-yl)methylene)hydrazinyl)-4-methylthiazol-5-yl)ethanone] came in with an IC50 at h-e5′NT of 3.36 ± 0.12 µM. In addition, the inhibition at 100 µM at r-e5′NT was found to be 10.8 ± 4.25%.

At h-e5′NT, `CC(=O)c1sc(N/N=C/c2cc3ccccc3[nH]2)nc1C` [3f, (E)-1-(2-(2-((1H-indol-2-yl)methylene)hydrazinyl)-4-methylthiazol-5-yl)ethanone] showed an IC50 of 6.19 ± 0.32 µM. On r-e5′NT, the inhibition at 100 µM turned out to be 32.7 ± 1.62%.

Consider `NS(=O)(=O)O` [sulfamic acid, reference compound], for which the IC50 against h-e5′NT turned out to be 42.1 ± 7.8 µM; at r-e5′NT it was 77.3 ± 7.01 µM.
